This passage reports AC1.4 results from patent US12441691B2 (Cytokinetics, Inc., priority 2020, dated 2025).

The structures appear in SMILES notation.

The subject of this assay is rabbit skeletal myofibrils (fast skeletal myofibrils). The experiment in a line: Activation of fast skeletal myofibrils (PUMA assay, AC1.4). The note with it: calcium at pCa25, AC1.4 = concentration at which the compound increased the enzymatic activity. It is filed as biochemical. The method, then:
Preparation of fast skeletal myofibrils: Rabbit skeletal myofibrils were prepared based upon the method of Herrmann et al. (Biochem. 32(28):7255-7263(1993). Myofibrils were prepared from rabbit psoas muscle purchased from Pel-Freez Biologicals (Arkansas) within 2 days of ordering, stored on ice. Minced muscle was homogenized in 10 volumes of ice-cold “standard” buffer (50 mM Tris, pH 7.4, 0.1 M KOAc, 5 mM KCl, 2 mM dithiothreitol (DTT), 0.2 mM phenylmethylsulfonyl fluoride (PMSF), 10 μM leupeptin, 5 μM pepstatin, and 0.5 mM sodium azide) containing 5 mM ethylenediaminetetraacetic acid (EDTA) and 0.5% Triton X-100 using an Omni-Macro homogenizer. Myofibrils were recovered by low speed centrifugation (3000 rpm for 10 minutes) and washed 2 times in the Triton X-100 containing buffer to ensure removal of cellular membrane. Following the Triton washes, myofibrils were washed 3 times in “standard” buffer containing 2 mM magnesium acetate. A final wash in assay buffer (12 mM piperazine-1,4-bis(2-ethanesulfonic acid) (PIPES), pH 6.8, 60 mM KCl, 1 mM DTT) was performed and brought to 10% sucrose for flash freezing in liquid nitrogen and storage at −80° C.
Activation of Fast Skeletal Myofibrils: Fast fiber activators were identified by measuring the enzymatic activity of muscle myofibril preparations using the proprietary PUMA (trademark) (see, e.g., U.S. Pat. Nos. 6,410,254, 6,743,599, 7,202,051, and 7,378,254) assay system. Myofibril preparations consisted of rabbit skeletal muscle (approximately 90% fast fibers) that had been mechanically homogenized and washed with a detergent (Triton X-100) to remove cellular membranes. This preparation retained all of the sarcomeric components in a native conformation and the enzymatic activity was still regulated by calcium. Compounds were tested using a myofibril suspension and a level of calcium sufficient to increase enzymatic activity of the myofibrils to 25% of their maximal rate (termed pCa25). Enzymatic activity was tracked via a pyruvate kinase and lactate dehydrogenase-coupled enzyme system. This assay regenerates myosin-produced ADP into ATP by oxidizing NADH, producing an absorbance change at 340 nm. The buffering system was 12 mM PIPES, 2 mM MgCl2, 1 mM DTT at pH 6.8 (PM12 buffer). […] In Table 9, “Example Compound” refers to the compound labeled with the same number in Table 2.
For `CC[C@H](C)[C@H]1C(=O)Nc2ccc(Cl)cc2CN1C(N)=O` [Compound 73, (S)-3-((S)-sec-butyl)-7-chloro-2-oxo-1,2,3,5-tetrahydro-4H-benzo[e][1,4]diazepine-4-carboxamide], the AC1.4 came out at 0.93 µM.

For `CC[C@H](C)[C@H]1C(=O)Nc2ccc(C3CC3)cc2CN1C(N)=O` [Compound 74, (S)-3-((S)-sec-butyl)-7-cyclopropyl-2-oxo-1,2,3,5-tetrahydro-4H-benzo[e][1,4]diazepine-4-carboxamide], the AC1.4 is 2.39 µM.

As to `CC[C@H](C)[C@H]1C(=O)Nc2cc(F)ccc2CN1C(N)=O` [Compound 75, (S)-3-((S)-sec-butyl)-8-fluoro-2-oxo-1,2,3,5-tetrahydro-4H-benzo[e][1,4]diazepine-4-carboxamide], the AC1.4 was 0.13 µM.

As for `CC[C@H](C)[C@H]1C(=O)Nc2cc(F)ccc2CN1C(=O)N1CC(O)C1` [Compound 76, (S)-3-((S)-sec-butyl)-8-fluoro-4-(3-hydroxyazetidine-1-carbonyl)-1,3,4,5-tetrahydro-2H-benzo[e][1,4]diazepin-2-one], the AC1.4 is 0.14 µM.

As for `CC[C@H](C)[C@H]1C(=O)Nc2cc(F)ccc2CN1C(=O)NC` [Compound 77, (S)-3-((S)-sec-butyl)-8-fluoro-N-methyl-2-oxo-1,2,3,5-tetrahydro-4H-benzo[e][1,4]diazepine-4-carboxamide], the AC1.4 came to 0.19 µM.

Consider `CC[C@H](C)[C@H]1C(=O)Nc2c(F)cccc2CN1C(=O)NC` [Compound 78, (S)-3-((S)-sec-butyl)-9-fluoro-N-methyl-2-oxo-1,2,3,5-tetrahydro-4H-benzo[e][1,4]diazepine-4-carboxamide], for which the AC1.4 was 0.50 µM.

Regarding `CC[C@H](C)[C@H]1C(=O)Nc2c(F)cccc2CN1C(=O)N1CC(O)C1` [Compound 79, (S)-3-((S)-sec-butyl)-9-fluoro-4-(3-hydroxyazetidine-1-carbonyl)-1,3,4,5-tetrahydro-2H-benzo[e][1,4]diazepin-2-one], the AC1.4 is 0.32 µM.

Consider `CC[C@H](C)[C@H]1C(=O)Nc2cncc(F)c2CN1C(=O)c1cnn(C)c1` [Compound 80, (S)-3-((S)-sec-Butyl)-6-fluoro-4-(1-methyl-1H-pyrazole-4-carbonyl)-1,3,4,5-tetrahydro-2H-pyrido[3,4-e][1,4]diazepin-2-one], for which the AC1.4 is 0.47 µM.

Turning to `CC[C@H](C)[C@H]1C(=O)Nc2cncc(C)c2CN1C(N)=O` [Compound 81, (S)-3-((S)-sec-butyl)-6-methyl-2-oxo-1,2,3,5-tetrahydro-4H-pyrido[3,4-e][1,4]diazepine-4-carboxamide], the AC1.4 turned out to be 3.80 µM.

For the molecule `CC[C@H](C)[C@H]1C(=O)Nc2ccccc2CN1C(=O)c1cc2cnccc2[nH]1` [Compound 83, (S)-3-((S)-sec-butyl)-4-(1H-pyrrolo[3,2-c]pyridine-2-carbonyl)-1,3,4,5-tetrahydro-2H-benzo[e][1,4]diazepin-2-one], the AC1.4 came out at 0.03 µM.

As for `CC[C@H](C)[C@H]1C(=O)Nc2ccccc2CN1C(=O)c1ccn(C)n1` [Compound 84, (S)-3-((S)-sec-butyl)-4-(1-methyl-1H-pyrazole-3-carbonyl)-1,3,4,5-tetrahydro-2H-benzo[e][1,4]diazepin-2-one], the AC1.4 was 0.09 µM.

As to `CC[C@H](C)[C@H]1C(=O)Nc2ccccc2CN1C(=O)c1ccc(C(N)=O)[nH]1` [Compound 85, 5-((S)-3-((S)-sec-butyl)-2-oxo-2,3,4,5-tetrahydro-1H-benzo[e][1,4]diazepine-4-carbonyl)-1H-pyrrole-2-carboxamide], the AC1.4 turned out to be 0.01 µM.

For `CC[C@H](C)[C@H]1C(=O)Nc2ccccc2CN1C(=O)[C@H](C)O` [Compound 86, (S)-3-((S)-sec-butyl)-4-((S)-2-hydroxypropanoyl)-1,3,4,5-tetrahydro-2H-benzo[e][1,4]diazepin-2-one], the AC1.4 stood at 1.81 µM.

For the molecule `CC[C@H](C)[C@H]1C(=O)Nc2ccccc2CN1/C(=N/C#N)NC` [Compound 87, (S,E)-3-((S)-sec-butyl)-N′-cyano-N-methyl-2-oxo-1,2,3,5-tetrahydro-4H-benzo[e][1,4]diazepine-4-carboximidamide], the AC1.4 worked out at 0.07 µM.

As to `CC(C)[C@H]1C(=O)Nc2ccccc2CN1c1nccc(=O)[nH]1` [Compound 88, (S)-3-isopropyl-4-(6-oxo-1,6-dihydropyrimidin-2-yl)-1,3,4,5-tetrahydro-2H-benzo[e][1,4]diazepin-2-one], the AC1.4 was determined as 1.22 µM.

As to `CC[C@H](C)[C@H]1C(=O)Nc2ccccc2CN1S(=O)(=O)c1ccc(F)cc1` [Compound 89, (S)-3-((S)-sec-butyl)-4-((4-fluorophenyl)sulfonyl)-1,3,4,5-tetrahydro-2H-benzo[e][1,4]diazepin-2-one], the AC1.4 was found to be 0.18 µM.

As for `CC(=O)N1Cc2ccccc2NC(=O)[C@@H]1C1CCCCCC1` [Compound 91, (S)-4-acetyl-3-cycloheptyl-1,3,4,5-tetrahydro-2H-benzo[e][1,4]diazepin-2-one], the AC1.4 is 0.08 µM.

As to `O=C1Nc2ccccc2CN(C(=O)CO)[C@H]1C1CCCCC1` [Compound 92, (S)-3-cyclohexyl-4-(2-hydroxyacetyl)-1,3,4,5-tetrahydro-2H-benzo[e][1,4]diazepin-2-one], the AC1.4 is 0.40 µM.

As to `CC[C@H](C)[C@H]1C(=O)Nc2ccccc2CN1C(=O)Nc1ccc(=O)n(C)c1` [Compound 93, (S)-3-((S)-sec-butyl)-N-(1-methyl-6-oxo-1,6-dihydropyridin-3-yl)-2-oxo-1,2,3,5-tetrahydro-4H-benzo[e][1,4]diazepine-4-carboxamide], the AC1.4 was 0.13 µM.

`CC[C@H](C)[C@H]1C(=O)Nc2ccccc2CN1C(=O)Nc1cccn(C)c1=O` [Compound 94, (S)-3-((S)-sec-butyl)-N-(1-methyl-2-oxo-1,2-dihydropyridin-3-yl)-2-oxo-1,2,3,5-tetrahydro-4H-benzo[e][1,4]diazepine-4-carboxamide]: the AC1.4 came to 0.15 µM.

As for `CC[C@H](C)[C@H]1C(=O)Nc2ccccc2CN1C(=O)c1c[nH]c(=O)[nH]1` [Compound 95, (S)-3-((S)-sec-butyl)-4-(2-oxo-2,3-dihydro-1H-imidazole-4-carbonyl)-1,3,4,5-tetrahydro-2H-benzo[e][1,4]diazepin-2-one], the AC1.4 was determined as 0.04 µM.

Regarding `CC[C@H](C)[C@H]1C(=O)Nc2ccccc2CN1C(=O)Nc1cccnc1` [Compound 99, (S)-3-((S)-sec-butyl)-2-oxo-N-(pyridin-3-yl)-1,2,3,5-tetrahydro-4H-benzo[e][1,4]diazepine-4-carboxamide], the AC1.4 was found to be 0.05 µM.

For the molecule `CC[C@H](C)[C@H]1C(=O)Nc2ccccc2CN1C(=O)Nc1cn[nH]c1` [Compound 101, (S)-3-((S)-sec-butyl)-2-oxo-N-(1H-pyrzol-4-yl)-1,2,3,5-tetrahydro-4H-benzo[e][1,4]diazepine-4-carboxamide], the AC1.4 turned out to be 0.05 µM.

With `CC[C@H](C)[C@H]1C(=O)Nc2ccccc2CN1C(=O)N1CC(CO)C1` [Compound 102, (S)-3-((S)-sec-butyl)-4-(3-(hydroxymethyl)azetidine-1-carbonyl)-1,3,4,5-tetrahydro-2H-benzo[e][1,4]diazepin-2-one], the AC1.4 amounted to 0.37 µM.

For `CC[C@H](C)[C@H]1C(=O)Nc2ccccc2CN1C(=O)N1CC[C@H]1C(N)=O` [Compound 103, (S)-1-((S)-3-((S)-sec-butyl)-2-oxo-2,3,4,5-tetrahydro-1H-benzo[e][1,4]diazepine-4-carbonyl)azetidine-2-carboxamide], the AC1.4 turned out to be 1.22 µM.

As to `CC[C@H](C)[C@H]1C(=O)Nc2ccccc2CN1C(=O)c1c[nH]cn1` [Compound 104, (S)-3-((S)-sec-butyl)-4-(1H-imidazole-4-carbonyl)-1,3,4,5-tetrahydro-2H-benzo[e][1,4]diazepin-2-one], the AC1.4 came out at 0.08 µM.

Consider `CC[C@H](C)[C@H]1C(=O)Nc2ccccc2CN1C(=O)c1ccn[nH]1` [Compound 105, (S)-3-((S)-sec-butyl)-4-(1H-pyrazole-5-carbonyl)-1,3,4,5-tetrahydro-2H-benzo[e][1,4]diazepin-2-one], for which the AC1.4 was determined as 0.10 µM.

For `CC[C@H](C)[C@H]1C(=O)Nc2ccccc2CN1C(=O)[C@@H]1CCCO1` [Compound 106, (S)-3-((S)-sec-butyl)-4-((S)-tetrahydrofuran-2-carbonyl)-1,3,4,5-tetrahydro-2H-benzo[e][1,4]diazepin-2-one], the AC1.4 stood at 0.89 µM.

On to `CC[C@H](C)[C@H]1C(=O)Nc2ccccc2CN1C(=O)[C@H]1CCCO1` [Compound 107, (S)-3-((S)-sec-butyl)-4-((R)-tetrahydrofuran-2-carbonyl)-1,3,4,5-tetrahydro-2H-benzo[e][1,4]diazepin-2-one], for which the AC1.4 was found to be 0.29 µM.
